Assay results taken from patent US4857546A, “Novel HMG-CoA reductase inhibitors” (Merck & Co., Inc., priority 1988, dated 1989).

Target: T1, HMG-CoA reductase (Rattus norvegicus, UniProt P51639)
T1 sequence (P51639 1-887): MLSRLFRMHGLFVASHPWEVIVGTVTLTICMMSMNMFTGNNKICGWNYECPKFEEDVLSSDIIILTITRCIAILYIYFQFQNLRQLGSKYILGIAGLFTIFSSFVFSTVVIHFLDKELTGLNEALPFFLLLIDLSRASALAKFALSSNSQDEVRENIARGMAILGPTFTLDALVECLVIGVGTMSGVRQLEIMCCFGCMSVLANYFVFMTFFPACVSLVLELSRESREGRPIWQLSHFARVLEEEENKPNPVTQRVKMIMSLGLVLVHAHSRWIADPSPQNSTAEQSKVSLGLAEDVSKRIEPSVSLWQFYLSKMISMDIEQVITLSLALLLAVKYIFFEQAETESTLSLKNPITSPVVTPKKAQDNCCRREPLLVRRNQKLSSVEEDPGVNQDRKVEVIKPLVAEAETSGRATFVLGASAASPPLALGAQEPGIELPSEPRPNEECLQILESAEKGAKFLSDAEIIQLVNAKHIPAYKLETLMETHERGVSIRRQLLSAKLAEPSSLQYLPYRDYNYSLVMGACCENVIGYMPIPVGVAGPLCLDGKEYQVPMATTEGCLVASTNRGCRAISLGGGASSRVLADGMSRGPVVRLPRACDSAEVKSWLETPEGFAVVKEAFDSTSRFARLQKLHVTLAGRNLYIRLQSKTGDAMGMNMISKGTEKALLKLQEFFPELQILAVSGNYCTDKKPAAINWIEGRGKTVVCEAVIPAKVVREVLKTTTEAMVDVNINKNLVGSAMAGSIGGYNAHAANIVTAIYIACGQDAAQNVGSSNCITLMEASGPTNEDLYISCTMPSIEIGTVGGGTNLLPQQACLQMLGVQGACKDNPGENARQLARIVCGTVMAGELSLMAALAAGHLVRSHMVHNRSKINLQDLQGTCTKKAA
Test: intrinsic HMG-CoA reductase inhibition, in vitro protocol of J. Med. Chem. 28, 347-358 (1985)
Type: biochemical
Conditions: IC50 of test compound compared with that of compactin (mevastatin) determined simultaneously; compactin assigned 100
Protocol: The intrinsic HMG-CoA reductase inhibition activity of the claimed compounds is measured in the in vitro protocol published in J. Med. Chem. 28, p. 347-358 (1985).
For estimation of relative inhibitory potencies, mevastatin (compactin) was assigned a value of 100 and the IC50 value of the test compound was compared with that of compactin determined simultaneously in the published in vitro protocol.

| Relative Potency | Compound |
| --- | --- |
| 125 | CCC(C)(C)C(=O)O[C@H]1C[C@H](CN)C=C2C=C[C@H](C)[C@H](CC[C@@H](O)C[C@@H](O)CC(=O)O)[C@H]21 [Example 1] |
| 167 | CCC(C)(C)C(=O)O[C@H]1C[C@H](CNCc2ccccc2)C=C2C=C[C@H](C)[C@H](CC[C@@H]3C[C@@H](O)CC(=O)O3)[C@H]21 [Example 2, 6(R)-[2-[8(S)-(2,2-dimethylbutyryloxy)-2(S)-methyl-6(S)-benzylaminomethyl-1,2,6,7,8, 8a(R)-hexahydronaphthyl-1(S)]ethyl]-4(R)-hydroxy-3,4,5,6-tetrahydro-2H-pyran-2-one] |
| 300 | CCC(C)(C)C(=O)O[C@H]1C[C@H](CNC(=O)c2ccccc2)C=C2C=C[C@H](C)[C@H](CC[C@@H]3C[C@@H](O)CC(=O)O3)[C@H]21 [Example 3, 6(R)-[2-[8(S)-(2,2-dimethylbutyryloxy)-2(S)-methyl-6(S)-phenylcarbonylaminomethyl-1,2,6,7,8,8a(R)-hexahydronaphthyl-1(S)]ethyl]-4(R)-hydroxy-3,4,5,6-tetrahydro-2H-pyran-2-one] |
| 294 | CCC(C)(C)C(=O)O[C@H]1C[C@H](CNC(=O)Nc2ccccc2)C=C2C=C[C@H](C)[C@H](CC[C@@H]3C[C@@H](O)CC(=O)O3)[C@H]21 [Example 4, 6(R)-[2-[8(S)-(2,2-dimethylbutyryloxy)-2(S)-methyl-6(S)-phenylureidomethyl-1,2,6,7,8,8a(R)-hexahydronaphthyl-1(S)]ethyl]-4(R)-hydroxy-3,4,5,6-tetrahydro-2H-pyran-2-one] |
| 500 | CCC(C)(C)C(=O)O[C@H]1C[C@H](CNC(=O)NCc2ccccc2)C=C2C=C[C@H](C)[C@H](CC[C@@H]3C[C@@H](O)CC(=O)O3)[C@H]21 [Example 5, 6(R)-[2-[8(S)-(2,2-dimethylbutyryloxy)-2(S)-methyl-6(S)-benzylureidomethyl-1,2,6,7,8,8a(R)-hexahydronaphthyl-1(S)]ethyl]-4(R)-hydroxy-3,4,5,6-tetrahydro-2H-pyran-2-one] |
